Laboratory results from US20260199293A1, “2-Arylbenzimidazole Compounds for the Treatment of Hemoglobinopathies” (TRANQUIS THERAPEUTICS, INC., priority 2022, published 2026).

Legend:
[1] = system: human primary erythroid progenitor CD34+ cells; assay: Effects on human primary erythroid progenitor CD34+ cells (F cells by flow cytometry, globin mRNA by qRT-PCR), Example 7; type: cell-based; conditions: for percentage of HbF-positive cells (F cells): flow cytometry
Procedure: The effects of the compounds and formulations described in Sections 3.2 and 3.3 hereinabove on human primary erythroid progenitor CD34^+ cells are studies using methods adapted from Sun et al. Sun et al., Br J Haematol. 197:97-109 (2022), the disclosure of which is herein incorporated by reference in its entirety. HbF-positive cells (F cells) are quantified by flow cytometry after compound exposure. Globin gene mRNA abundance is determined by quantitative real-time polymerase chain reaction (qRT-PCR).

[2] = system: SCD mice; assay: Effects on SCD mice (globin gene expression by qRT-PCR, F cells in peripheral blood by flow cytometry), Example 8; type: in vivo
Procedure: The effects of the compounds and formulations described in Sections 3.2 and 3.3 on SCD mice are studied using methods adapted from Sun et al., Br J Haematol. 197:97-109 (2022), the disclosure of which is herein incorporated by reference in its entirety. Relative mRNA abundance of PGC-1α and globin gene expression are determined by quantitative real-time polymerase chain reaction (qRT-PC R). HbF-positive cells (F cells) in peripheral blood of treated SCD mice are quantified by flow cytometry

[3] = Solubility (statement); type: physicochemical
Text: Oral administration is preferred to parenteral administration for chronic life-long treatment, as is required for treating hemoglobinopathies such as sickle cell disease. […] There is a need, therefore, for agents that increase PGC-1α expression that can be administered orally for treatment of hemoglobinopathies such as SCD.

[4] = system: human primary erythroid progenitor CD34+ cells; conditions: cited from earlier work
[5] = system: sickle mice; conditions: cited from earlier work
[6] = system: Ppargc1α (PGC-1α) expression; conditions: cited from earlier work
[7] = system: murine models of neurodegenerative diseases; conditions: cited from earlier work
[8] = system: older mice; conditions: cited from earlier work
[9] = system: acute systemic immune activation, including cytokine release syndrome (CRS); conditions: cited from earlier work

| Compound | fetal γ-globin mRNA protein expression [1] | percentage of HbF-positive cells (F cells) [1] | expression of the murine embryonic βh1-globin gene [2] | human γ-globin gene expression [2] | solubility [3] | cell proliferation and differentiation [4] | fetal γ-globin mRNA and protein expression [4] | percentage of HbF-positive cell (F cells) [4] | expression of the murine embryonic βh1-globin gene [5] | γ-globin expression and fetal hemoglobin (HbF) production [5] | Ppargc1α (PGC-1α) expression [6] | disease severity [7] | myeloid-mediated inflammation [7] | behavioral dysfunction [8] | inflammatory cytokine production in microglia [8] | metabolic dysfunction in microglia [8] | systemic inflammation [8] | acute systemic immune activation, including cytokine release syndrome (CRS) [9] |
| --- | --- | --- | --- | --- | --- | --- | --- | --- | --- | --- | --- | --- | --- | --- | --- | --- | --- | --- |
| CC(C)(C)c1ccc(-c2nc3cc(O)ccc3[nH]2)cc1 [Compound 26, 2-(4-tert-Butylphenyl)-1H-benzo[d]imidazol-5-ol] | induce | induce | induce | induce | – | – | – | – | – | – | – | – | – | – | – | – | – | – |
| CC(C)(C)c1ccc(-c2nc3ccccc3[nH]2)cc1 [TQS-168, 2-(4-tert-butylphenyl)-1H-benzimidazole] | induce | induce | induce | induce | poorly soluble | without significantly affecting | induce | induce | robust expression | induce | activator | reduce | suppress | alleviate | inhibit | suppress | suppress | suppress |
